# Experimental data reported in patent US8999071B2, “Surfactants derived from oligoglycerols” (Dow Global Technologies LLC, priority 2011, dated 2015).
# Legend:
# Type in all cases: physicochemical
# [1] = Dynamic surface tension, maximum bubble pressure method (Kruss BP-2)
# Experimental: Dynamic surface tension is measured using a Kruss BP-2 Bubble Pressure Tensiometer. During the test, high purity nitrogen gas bubbles are produced in the surfactant solution at an exactly defined bubble generation rate. The gas bubbles enter the liquid through a glass capillary of known radius (0.223 mm). During this process the pressure passes through a maximum whose value is recorded by the instrument. Surface tension is then calculated from the maximum pressure during bubble formation, and reported as a function of bubble surface age, in ms, and bubble frequency. The measurements are made at ambient temperature.
# Dynamic surface tension of surfactants at varying surface ages (presented as bubble frequency) are measure by bubble pressure method on Kruss BP2 tensiometer at 0.1 wt % concentration and 25° C.
# [2] = as above; remark: listed apart in the source
# [3] = Surface tension and critical micelle concentration, Kruss K100 tensiometer with Wilhelmy plate; conditions: 25° C., FIG. 1
# Experimental: The surface tension and critical micelle concentration (cmc) of a surfactant solution is measured using Kruss K100 Surface Tensiometer fitted with a Wilhelmy platinum plate. A standard method is utilized. In this method, an increment of surfactant solution is added using a Dosimat™ dosimeter to the vessel initially containing deionized water, and then thoroughly stirred. The surface tension of the resulting solution is then measured. The process is repeated at each concentration data point. Two measurements are made for each system at ambient temperature.
# Surface tension-Concentration data for the compound 3 at 25° C. are plotted in FIG. 1.
# [4] = Caustic stability: solubility in NaOH solution
# Experimental: The caustic stability of compounds 1 and 2 is measured by their solubility in 10 wt % NaOH solution: stock solutions are prepared at 1 wt %. Into a sample vial, 1.0 gram of a stock solution is weighed and then 9.0 grams of 11.1 wt % NaOH solution is added to get a 0.1 wt % surfactant solution in 10% NaOH. Both solutions are clear at this condition. In contrast, Tomadol® 91-6 (C9-C11 alcohols ethoxylated to 6EO, cloud point=52° C.) solution (0.1 wt %) becomes cloudy at 5% NaOH content.
# [5] = Acidic stability: appearance and shake foam in 0.01 M HCl
# Experimental: The acidic stability of compounds 1 and 2 are tested and compared with Triton™ CG-110 in 0.01 M HCl: solutions are prepared in 0.01 M HCl at 0.1 wt % surfactant concentration. Compound 1 solution is cloudy at this HCl concentration, indicating its cloud point is reduced by the presence of HCl.
smiles,measurement,setting,value
"CCCCCC(CCC)COCC(O)COCC(O)CO (stereo not drawn) [Compound 3, 3-(2-hydroxy-3-((2-propylheptyl)oxy)propoxy)propane-1,2-diol]",surface tension at bubble frequency larger than 10 bubbles/sec,"[1]; 0.1 wt %, 25° C., >10 bubbles/sec, FIG. 2",around 37 dynes/cm
same,surface tension in the whole range of surface ageing time compared to the Lutensol products,"[1]; 0.1 wt %, 25° C., FIG. 2",lower surface tension
same,"surface tension over the whole tested range of ageing time compared to C12TG, C11DG and C10DG","[1]; 0.1 wt %, 25° C., FIG. 2",lower surface tension
same,surface tension at lower bubble frequency compared to Surfynol 420,"[1]; 1-6 bubbles/sec., 0.1 wt %, FIG. 2",significantly lower surface tension
same,"Surface Tension @ 6 bubbles/sec., 0.1 wt %",[1]; 25° C.,33.3 dyne/cm
same,"Surface Tension @ 6 bubbles/sec., 0.05 wt %",[2],39.4 dyne/cm
same,critical micelle concentration (cmc),[3],about 700 ppm
same,water surface tension after reaching critical micelle concentration,[3],26-27 dynes/cm
"CCCCCCCCCCOCC(O)COCC(O)CO (stereo not drawn) [Compound 4, 3[3-(decyloxy)-2-hydroxypropoxy]-1,2-propanediol]","Surface Tension @ 6 bubbles/sec., 0.1 wt %",[1]; 25° C.,43.8 dyne/cm
"CCCCCCCCCCCOCC(O)COCC(O)CO (stereo not drawn) [Compound 6, 3-(2-hydroxy-3-(undecyloxy)propoxy)propane-1,2-diol]","Surface Tension @ 6 bubbles/sec., 0.1 wt %",[1]; 25° C.,61.4 dyne/cm
"CCCCCCCCCOCC(O)COCC(O)CO (stereo not drawn) [Compound 1, 3-[3-(nonyloxy)-2-hydroxypropoxy]-1,2-propanediol]","surface tension over the whole tested range of ageing time compared to C12TG, C11DG and C10DG","[1]; 0.1 wt %, 25° C., FIG. 2",lower surface tension
same,"Surface Tension @ 6 bubbles/sec., 0.1 wt %",[1]; 25° C.,35.6 dyne/cm
same,appearance of 0.1 wt % surfactant solution in 10% NaOH,[4],clear
same,acidic stability compared with Triton CG-110,[5]; 0.01 M HCl,improved stability
same,"Foam Volume, 20 h","[5]; 0.1 wt % in 0.01M HCl, 10 ml, shaken at high for 10 min., after 20 hours in air at room temperature",17 mL
same,"Foam Volume, 0 h","[5]; 0.1 wt % in 0.01M HCl, 10 ml, shaken at high for 10 min., right after preparation",17 mL
same,"foam persistence after shaking, 20 h","[5]; 0.1 wt % in 0.01M HCl, after 20 hours at room temperature",no change
same,"foam persistence after shaking, 0 h","[5]; 0.1 wt % in 0.01M HCl, right after preparation",no change
same,appearance of solution in 0.01 M HCl,"[5]; 0.1 wt % surfactant, 0.01 M HCl",cloudy
"CCCCCCCCCCOCC(O)COCC(O)COCC(O)CO (stereo not drawn) [Compound 2, 3-(3-(3-(decyloxy)-2-hydroxypropoxy)-2-hydroxypropoxy)propane-1,2-diol]",acidic stability compared with Triton CG-110,[5]; 0.01 M HCl,improved stability
"CCCCCCCCCCCCOCC(O)COCC(O)COCC(O)CO (stereo not drawn) [Compound C12TG, 3-(3-(3-(dodecyloxy)-2-hydroxypropoxy)-2-hydroxypropoxy)propane-1,2-diol, reference compound]","Surface Tension @ 6 bubbles/sec., 0.1 wt %",[1]; 25° C.,56.9 dyne/cm
